Assay results: ChEMBL document CHEMBL2375250, “Efficient synthesis of new (R)-2-amino-1-butanol derived ureas, thioureas and acylthioureas and in vitro evaluation of their antimycobacterial activity” (Eur J Med Chem, 2013)
Values after ≈ are worked out from the molar mass of the structure shown. Structures can show the parent of a compound that is named as a salt.

Experiments:
[1] = system: Mycobacterium avium; experiment: Antimycobacterial activity against Mycobacterium avium 724 assessed as growth inhibition after 12 days microdrop agar proportion test; assay type: functional; conditions: Mycobacterium avium, 724, 288 h
[2] = system: Mycolicibacterium aurum; experiment: Antimycobacterial activity against Mycobacterium aurum A+ assessed as growth inhibition after 4 days microdrop agar proportion test; assay type: functional; conditions: 96 h
[3] = system: Mycobacterium tuberculosis; experiment: Antimycobacterial activity against Mycobacterium tuberculosis H37Rv assessed as growth inhibition after 45 days by Lowenstein-Jensen method; assay type: functional
[4] = system: HEK-293T; experiment: Cytotoxicity against HEK293T cells assessed as cell viability after 72 hrs by MTT assay; assay type: cell-based; conditions: Homo sapiens
[5] = Selectivity index, ratio of IC50 for HEK293T cells to MIC for Mycobacterium tuberculosis H37Rv; assay type: functional, HEK-293T
[6] = system: Mycobacterium tuberculosis; experiment: Antimycobacterial activity against Mycobacterium tuberculosis H37Rv assessed as bacterial growth at 5 ug/mL after 45 days by Lowenstein-Jensen method; assay type: functional
[7] = system: Mycobacterium tuberculosis; experiment: Antimycobacterial activity against Mycobacterium tuberculosis assessed as growth inhibition; assay type: functional

CC(C)CCOc1ccc(NC(=S)Nc2ccc(OCCC(C)C)cc2)cc1 [TIOCARLIDE]
MIC [1]: 4.99 µM (≈ 2 µg/mL) | MIC [2]: 4.99 µM

CC[C@H](CO)NC(=S)NC(=O)c1ccc(N(C)C)cc1
MIC [3]: 3.39 µM (≈ 1 µg/mL) | IC50 [4]: 12.8 µM | Selectivity Index [5]: 3.8

CC[C@H](CO)NC(=O)NCCc1ccccc1
Activity [6]: 100% | MIC [3]: > 21.2 µM

CC[C@H](CO)NC(=O)NCCCCCCNC(=O)N[C@H](CC)CO
Activity [6]: 100% | MIC [3]: > 14.4 µM

CC[C@H](CO)NC(=S)NC(=O)CCc1ccccc1
MIC [3]: 7.13 µM (≈ 2 µg/mL) | IC50 [4]: 66.2 µM | Selectivity Index [5]: 9.3

CC[C@H](CO)NC(=O)N(C)C
Activity [6]: 100% | MIC [3]: > 31.2 µM

CC[C@H](CO)NC(=S)NC(=O)c1ccccc1O
MIC [3]: 7.46 µM (≈ 2 µg/mL) | IC50 [4]: 104 µM | Selectivity Index [5]: 14

CC[C@@H](CO)NCCN[C@@H](CC)CO [ETHAMBUTOL HYDROCHLORIDE]
MIC [3]: 7.22 µM | MIC [7]: 7.22 µM

CC[C@H](CO)NC(=O)N[C@H](C)c1ccccc1
Activity [6]: 100% | MIC [3]: > 21.2 µM

CC[C@H](CO)NC(=O)Nc1ccc(Cc2ccc(NC(=O)N[C@H](CC)CO)cc2)cc1
Activity [6]: 100% | MIC [3]: > 11.7 µM

CCNC(=S)N[C@H](CC)CO
Activity [6]: 100% | MIC [3]: > 28.4 µM

CC(C)=CCC/C(C)=C/CNCCNC1C2CC3CC(C2)CC1C3 (stereo unspecified) [SQ109]
MIC [7]: 0.7 µM (≈ 0.231 µg/mL)

CC[C@H](CO)NC(=O)N[C@H](CC)CO
Activity [6]: 100% | MIC [3]: > 24.5 µM

CC[C@H](CO)NC(=O)NCC(c1ccccc1)c1ccccc1
Activity [6]: 100% | MIC [3]: 4.8 µM (≈ 1.5 µg/mL)

CC[C@H](CO)NC(=O)NC12CC3CC(CC(C3)C1)C2
Activity [6]: 100% | MIC [3]: > 18.8 µM

CC[C@H](CO)NC(=S)NC(=O)/C=C/c1ccccc1
MIC [3]: 0.36 µM (≈ 0.1 µg/mL) | IC50 [4]: 42.9 µM | Selectivity Index [5]: 119.2

CC[C@H](CO)NC(=O)NC(C)(C)C
Activity [6]: 100% | MIC [3]: > 26.6 µM

CC[C@H](CO)NC(=S)NC
Activity [6]: 100% | MIC [3]: > 30.8 µM

CC[C@H](CO)NC(=O)NCc1ccccc1
Activity [6]: 100% | MIC [3]: > 22.5 µM

CC[C@H](CO)NC(=O)Nc1ccccc1
Activity [6]: 100% | MIC [3]: > 24 µM

CCCNC(=O)N[C@H](CC)CO
Activity [6]: 100% | MIC [3]: > 28.7 µM

CC[C@H](CO)NC(=O)Nc1ccc(NC(=O)N[C@H](CC)CO)cc1
Activity [6]: 100% | MIC [3]: > 14.8 µM

CCCCNC(=O)N[C@H](CC)CO
Activity [6]: 100% | MIC [3]: > 26.6 µM

CC[C@H](CO)NC(=O)NC1CCCCC1
Activity [6]: 100% | MIC [3]: > 23.3 µM
